# Laboratory results published in PubChem BioAssay (NCI).
#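 GI50 marks 50% less growth. TGI marks complete inhibition of growth.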
# Columns and labels:
# Assay in all cases: DTP human tumour cell line panel, 384-well format
# HL-60(TB) leukemia = test system: HL-60(TB) leukemia
# HS 578T breast = test system: HS 578T breast
# HOP-92 NSCLC = test system: HOP-92 NSCLC
# MDA-MB-231 breast = test system: MDA-MB-231 breast
# TK-10 renal = test system: TK-10 renal
# SK-MEL-5 melanoma = test system: SK-MEL-5 melanoma
# RPMI-8226 leukemia = test system: RPMI-8226 leukemia
# CCRF-CEM leukemia = test system: CCRF-CEM leukemia
# UACC-62 melanoma = test system: UACC-62 melanoma
# IGROV1 ovarian = test system: IGROV1 ovarian
# SK-MEL-28 melanoma = test system: SK-MEL-28 melanoma
# SW-620 colon = test system: SW-620 colon
# M14 melanoma = test system: M14 melanoma
# MOLT-4 leukemia = test system: MOLT-4 leukemia
# DU-145 prostate = test system: DU-145 prostate
# OVCAR-4 ovarian = test system: OVCAR-4 ovarian
# HCT-15 colon = test system: HCT-15 colon
# 786-0 renal = test system: 786-0 renal
# COLO 205 colon = test system: COLO 205 colon
# MDA-MB-435 melanoma = test system: MDA-MB-435 melanoma
# EKVX NSCLC = test system: EKVX NSCLC
# KM12 colon = test system: KM12 colon
# HCT-116 colon = test system: HCT-116 colon
# HT29 colon = test system: HT29 colon
# HCC-2998 colon = test system: HCC-2998 colon
smiles,measurement,setting,value
COc1cnccc1Nc1nc(-c2nn(Cc3c(F)cc(OCCO)cc3F)c3ccccc23)ncc1OC,GI50,HL-60(TB) leukemia,0.838 µM
same,TGI,HL-60(TB) leukemia,2.16 µM
same,GI50,HS 578T breast,1.75 µM
same,TGI,HS 578T breast,3.89 µM
same,GI50,HOP-92 NSCLC,0.902 µM
same,TGI,HOP-92 NSCLC,2.19 µM
same,GI50,MDA-MB-231 breast,1.41 µM
same,TGI,MDA-MB-231 breast,3.22 µM
same,GI50,TK-10 renal,2.04 µM
same,TGI,TK-10 renal,4.14 µM
same,GI50,SK-MEL-5 melanoma,1.51 µM
same,TGI,SK-MEL-5 melanoma,2.85 µM
same,GI50,RPMI-8226 leukemia,0.841 µM
same,TGI,RPMI-8226 leukemia,2.09 µM
same,GI50,CCRF-CEM leukemia,0.395 µM
same,TGI,CCRF-CEM leukemia,1.74 µM
same,GI50,UACC-62 melanoma,1.5 µM
same,TGI,UACC-62 melanoma,2.86 µM
same,GI50,IGROV1 ovarian,1.94 µM
same,TGI,IGROV1 ovarian,4.47 µM
same,GI50,SK-MEL-28 melanoma,1.72 µM
same,TGI,SK-MEL-28 melanoma,3.12 µM
same,GI50,SW-620 colon,1.47 µM
same,TGI,SW-620 colon,2.84 µM
same,GI50,M14 melanoma,1.4 µM
same,TGI,M14 melanoma,2.86 µM
same,GI50,MOLT-4 leukemia,0.126 µM
same,TGI,MOLT-4 leukemia,0.548 µM
same,GI50,DU-145 prostate,1.73 µM
same,TGI,DU-145 prostate,3.44 µM
same,GI50,OVCAR-4 ovarian,1.64 µM
same,TGI,OVCAR-4 ovarian,3.03 µM
same,GI50,HCT-15 colon,1.2 µM
same,TGI,HCT-15 colon,2.51 µM
same,GI50,786-0 renal,1.53 µM
same,TGI,786-0 renal,2.89 µM
same,GI50,COLO 205 colon,2.27 µM
same,TGI,COLO 205 colon,> 33.3 µM
same,GI50,MDA-MB-435 melanoma,1.73 µM
same,TGI,MDA-MB-435 melanoma,3.36 µM
same,GI50,EKVX NSCLC,1.54 µM
same,TGI,EKVX NSCLC,3.16 µM
same,GI50,KM12 colon,1.27 µM
same,TGI,KM12 colon,3.13 µM
same,GI50,HCT-116 colon,1.62 µM
same,TGI,HCT-116 colon,3.6 µM
same,GI50,HT29 colon,1.85 µM
same,TGI,HT29 colon,5.48 µM
same,GI50,HCC-2998 colon,1.76 µM
